Laboratory results published in patent US9267949B2, “Alkylamino BODIPY dyes as selective fluorescent probes for proteins and mouse embryonic stem cells” (National University of Singapore, priority 2011, dated 2016).

Key:
[1] = Quantum yield measurements; assay type: physicochemical; settings: referred to Rhodamine B in EtOH, excitation 510 nm, emission integrated 540-800 nm
Procedure: Quantum yields were calculated by measuring the integrated emission area of the fluorescent spectra, and referring them to the area measured for Rhodamine B in EtOH after excitation at 510 nm (ΦRho-B=0.70). Quantum yields for the BDM products were then calculated using equation below, where F represents the area of fluorescent emission, n is reflective index of the solvent, and Abs is absorbance at excitation wavelength selected for standards and samples. Emission was integrated from 540 nm to 800 nm.

[2] = Spectroscopic properties of the BDM library (absorbance and emission maxima); assay type: physicochemical

| Structure (SMILES) | φ (quantum yield) [1] | λmax (ABS) [2] | λmax (EM) [2] |
| --- | --- | --- | --- |
| CC1=CC(/C=C/c2ccc(OC(C)(C)C)cc2)=[N+]2C1=C(CCN)c1cccn1[B-]2(F)F [BDM-75] | 0.53 | 560 nm | 585 nm |
| CCCc1ccc(/C=C/C2=[N+]3C(=C(CCN)c4cccn4[B-]3(F)F)C(C)=C2)cc1 [BDM-77] | 0.54 | 557 nm | 569 nm |
| CC1=CC(/C=C/c2ccc(N(C)C)cc2[N+](=O)[O-])=[N+]2C1=C(CCN)c1cccn1[B-]2(F)F [BDM-78] | 0.01 | 591 nm | – |
| COc1cc(OC)c(/C=C/C2=[N+]3C(=C(CCN)c4cccn4[B-]3(F)F)C(C)=C2)c(OC)c1 [BDM-82] | 0.40 | 579 nm | 621 nm |
| CC1=CC(/C=C/c2ccc(-c3ccccn3)cc2)=[N+]2C1=C(CCN)c1cccn1[B-]2(F)F [BDM-88] | 0.21 | 565 nm | 576 nm |
| CC1=CC(/C=C/c2ccc3c4c(cccc24)CC3)=[N+]2C1=C(CCN)c1cccn1[B-]2(F)F [BDM-89] | 0.30 | 576 nm | 612 nm |
| CC1=CC(/C=C/c2ccc(OCc3ccccc3)cc2)=[N+]2C1=C(CCN)c1cccn1[B-]2(F)F [BDM-90] | 0.26 | 565 nm | 582 nm |
| CC1=CC(/C=C/c2ccc(N(C)CCO)cc2)=[N+]2C1=C(CCN)c1cccn1[B-]2(F)F [BDM-91] | 0.02 | 614 nm | 699 nm |
| COc1ccc2[nH]cc(/C=C/C3=[N+]4C(=C(CCN)c5cccn5[B-]4(F)F)C(C)=C3)c2c1 [BDM-93] | 0.06 | 592 nm | 653 nm |
| COc1cccc(/C=C/C2=[N+]3C(=C(CCN)c4cccn4[B-]3(F)F)C(C)=C2)c1O [BDM-97] | 0.04 | 561 nm | 572 nm |
| CC1=CC(/C=C/c2ccc(Br)s2)=[N+]2C1=C(CCN)c1cccn1[B-]2(F)F [BDM-100] | 0.43 | 571 nm | 582 nm |
| CC1=CC(/C=C/c2ccc(Oc3ccccc3)cc2)=[N+]2C1=C(CCN)c1cccn1[B-]2(F)F [BDM-101] | 0.66 | 559 nm | 576 nm |
| CC1=CC(/C=C/c2cccc(O)c2)=[N+]2C1=C(CCN)c1cccn1[B-]2(F)F [BDM-105] | 0.18 | 556 nm | 567 nm |
| CCN(CC)c1ccc(/C=C/C2=[N+]3C(=C(CCN)c4cccn4[B-]3(F)F)C(C)=C2)cc1 [BDM-107] | 0.05 | 617 nm | 681 nm |
| CC1=CC(/C=C/c2c(C)cc(C)cc2C)=[N+]2C1=C(CCN)c1cccn1[B-]2(F)F [BDM-108] | 0.35 | 549 nm | 573 nm |
| COc1ccc(/C=C/C2=[N+]3C(=C(CCN)c4cccn4[B-]3(F)F)C(C)=C2)cc1 [BDM-110] | 0.85 | 563 nm | 583 nm |
| CC(=O)Nc1ccc(/C=C/C2=[N+]3C(=C(CCN)c4cccn4[B-]3(F)F)C(C)=C2)cc1 [BDM-111] | 0.79 | 566 nm | 589 nm |
| COc1ccc(/C=C/C2=[N+]3C(=C(CCN)c4cccn4[B-]3(F)F)C(C)=C2)cc1O [BDM-132] | 0.05 | 568 nm | 594 nm |
| CC1=CC(/C=C/c2ccc(C)o2)=[N+]2C1=C(CCN)c1cccn1[B-]2(F)F [BDM-135] | 0.10 | 577 nm | 601 nm |
| CC1=CC(/C=C/c2ccc3ccccc3c2)=[N+]2C1=C(CCN)c1cccn1[B-]2(F)F [BDM-137] | 0.28 | 563 nm | 575 nm |
| CC1=CC(/C=C/c2ccc3c(c2)OCO3)=[N+]2C1=C(CCN)c1cccn1[B-]2(F)F [BDM-139] | 0.55 | 564 nm | 584 nm |
| CCCOc1ccc(/C=C/C2=[N+]3C(=C(CCN)c4cccn4[B-]3(F)F)C(C)=C2)cc1 [BDM-140] | 0.57 | 564 nm | 585 nm |
| CC1=CC(/C=C/c2ccccc2C)=[N+]2C1=C(CCN)c1cccn1[B-]2(F)F [BDM-143] | 0.42 | 554 nm | 566 nm |
| COc1cc(OC)c(OC)cc1/C=C/C1=[N+]2C(=C(CCN)c3cccn3[B-]2(F)F)C(C)=C1 [BDM-144] | 0.05 | 578 nm | 612 nm |
| CC1=CC(/C=C/c2ccc(OCCCN(C)C)cc2)=[N+]2C1=C(CCN)c1cccn1[B-]2(F)F [BDM-163] | 0.41 | 566 nm | 586 nm |
| CC1=CC(/C=C/c2ccc(C(C)(C)C)cc2)=[N+]2C1=C(CCN)c1cccn1[B-]2(F)F [BDM-177] | 0.78 | 556 nm | 567 nm |
| COc1ccc(Oc2ccc(/C=C/C3=[N+]4C(=C(CCN)c5cccn5[B-]4(F)F)C(C)=C3)cc2)cc1 [BDM-178] | 0.37 | 561 nm | 577 nm |
| COC(=O)c1ccc(-c2ccc(/C=C/C3=[N+]4C(=C(CCN)c5cccn5[B-]4(F)F)C(C)=C3)cc2)cc1 [BDM-179] | 0.26 | 566 nm | 581 nm |
| COc1cccc(/C=C/C2=[N+]3C(=C(CCN)c4cccn4[B-]3(F)F)C(C)=C2)c1 [BDM-186] | 0.97 | 553 nm | 564 nm |

More lines, now with the values ahead:

| φ (quantum yield) [1] | λmax (ABS) [2] | λmax (EM) [2] | Structure (SMILES) |
| --- | --- | --- | --- |
| 0.20 | 574 nm | 605 nm | COc1ccc(/C=C/C2=[N+]3C(=C(CCN)c4cccn4[B-]3(F)F)C(C)=C2)c(O)c1 [BDM-192] |
| 0.03 | 600 nm | 663 nm | COc1ccc(-c2ccc(/C=C/C3=[N+]4C(=C(CCN)c5cccn5[B-]4(F)F)C(C)=C3)o2)cc1Cl [BDM-195] |
| 0.59 | 559 nm | 574 nm | COc1ccccc1/C=C/C1=[N+]2C(=C(CCN)c3cccn3[B-]2(F)F)C(C)=C1 [BDM-198] |
| 0.18 | 562 nm | 574 nm | CC1=CC(/C=C/c2ccc(-c3cncnc3)cc2)=[N+]2C1=C(CCN)c1cccn1[B-]2(F)F [BDM-199] |
| 0.52 | 559 nm | 575 nm | C=CCOc1ccccc1/C=C/C1=[N+]2C(=C(CCN)c3cccn3[B-]2(F)F)C(C)=C1 [BDM-202] |
| 0.24 | 553 nm | 566 nm | CC1=CC(/C=C/c2ccccc2Cl)=[N+]2C1=C(CCN)c1cccn1[B-]2(F)F [BDM-207] |
| 0.27 | 558 nm | 572 nm | CC1=CC(/C=C/c2ccc(C)cc2)=[N+]2C1=C(CCN)c1cccn1[B-]2(F)F [BDM-208] |
| 0.38 | 555 nm | 567 nm | COc1cc(/C=C/C2=[N+]3C(=C(CCN)c4cccn4[B-]3(F)F)C(C)=C2)cc(OC)c1 [BDM-209] |
| 0.37 | 559 nm | 574 nm | CC1=CC(/C=C/c2ccccc2OCc2ccccc2)=[N+]2C1=C(CCN)c1cccn1[B-]2(F)F [BDM-218] |
| 0.24 | 557 nm | 567 nm | COc1cc(Br)cc(/C=C/C2=[N+]3C(=C(CCN)c4cccn4[B-]3(F)F)C(C)=C2)c1OC [BDM-228] |
| 0.17 | 558 nm | 568 nm | CC1=CC(/C=C/c2cccc3c2OCO3)=[N+]2C1=C(CCN)c1cccn1[B-]2(F)F [BDM-231] |
| 0.22 | 574 nm | 594 nm | CC1=CC(/C=C/c2ccc(C)s2)=[N+]2C1=C(CCN)c1cccn1[B-]2(F)F [BDM-236] |
